Source: patent publication US20250034522A1, “METHOD FOR SEPARATING PITUITARY CELLS AND HYPOTHALAMIC CELLS USING CELL SURFACE MARKER” (FUJITA ACADEMY, priority 2021, published 2025)
Where no end group is shown, it is not given here.

Tests used:
Format in all cases: cell-based, human
[1] = tested on: CD49c-positive cell aggregates reaggregated after FACS purification from hESC sample; assay: ACTH secretion test with CRH receptor inhibitor under standard and low glucose; conditions: 3 hours pretreatment, vs 0.1% DMSO, 30 minutes, aggregates cultured 13-15 days
Procedure: As a test method, a cell aggregate that was reaggregated after FACS purification from a hESC sample and cultured for 13-15 days was used. Before secretion measurement, cells were pretreated for 3 hours with maintenance medium (gfCDM+20% KSR+[…]) containing antalarmin […] or the same amount of solvent (0.1% DMSO) as a control. Each pretreated cell aggregate was transferred to a 1.5 ml microtube, incubated in 250 μl of standard glucose medium (glucose-free DMEM+5.56 mM D-glucose+4.44 mM D-mannitol) at 37° C. for 30 minutes, and the medium was collected. Subsequently, the aggregate was incubated in 250 μl of low glucose medium (glucose-free DMEM+0.56 mM D-glucose+9.44 mM D-mannitol) at 37° C. for 30 minutes, and then the medium was collected. Antalarmin or DMSO was continuously added to the standard glucose medium and low glucose medium described above. The results of measuring the ACTH concentration in the collected medium using the ECLIA method used in clinical tests are shown. It was confirmed that ACTH secretion increased under low glucose conditions (10 mg/dL) compared to standard glucose conditions (100 mg/dL). […]
(§1) Cell aggregates that were reaggregated after MACS or FACS purification and cultured for 8 days or more were used. […] ACTH concentration in the collected medium etc., was measured by the ECLIA method used in clinical testing. […]

[2] = tested on: CD49c-positive cell aggregates reaggregated after FACS purification from hESC sample; assay: ACTH secretion test with secretion suppressor cortisol; conditions: CD49c-positive cells (FACS, hESC sample), cultured 13 days, 3 hours pretreatment, Hydrocortisone 20 µg/ml vs 0.1% DMSO, standard glucose medium 30 minutes, ECLIA
Procedure: As a test method, a cell aggregate that was reaggregated after FACS purification from a hESC sample and cultured for 12 days was used. Each cell aggregate was transferred to a 1.5 ml microtube, incubated in 250 μl of standard glucose medium (glucose-free DMEM+5.56 mM D-glucose+4.44 mM D-mannitol) at 37° C. for 30 minutes, and then the medium was collected. Subsequently, the aggregate was incubated in 250 μl of standard glucose medium containing 1 μg/ml CRH (Peptide Institute, #4136-s) at 37° C. for 30 minutes, and then the medium was collected. The ACTH concentration in the collected medium was measured by the ECLIA method used in clinical testing. […] As a test method, a cell aggregate that was reaggregated after FACS purification from a hESC sample and cultured for 13 days was used. Before secretion measurement, cells were pretreated for 3 hours with maintenance medium (gfCDM+20% KSR+2 μM SAG) containing cortisol (Hydrocortisone, […]) or the same amount of solvent (0.1% DMSO) as a control. […] The ACTH concentration in the collected medium was measured by the ECLIA method used in clinical testing. […] ACTH concentration in the collected medium etc., was measured by the ECLIA method used in clinical testing. […]

[3] = tested on: cell aggregates reaggregated after FACS purification from hiPSC sample (CD49c-positive / CD49c-negative cells); assay: ACTH secretion test (CRH stimulation) on hiPSC sample reaggregates; conditions: cultured 21 days, 1 μg/ml CRH in standard glucose medium, 37° C., 30 minutes, ECLIA
Procedure: As a test method, a cell aggregate that was reaggregated after FACS purification from a hiPSC sample and cultured for 21 days was used. Each cell aggregate was transferred to a 1.5 ml microtube, incubated in 250 μl of standard glucose medium (glucose-free DMEM+5.56 mM D-glucose+4.44 mM D-mannitol) at 37° C. for 30 minutes, and then the medium was collected. Subsequently, the aggregate was incubated in 250 μl of standard glucose medium containing 1 μg/ml CRH (Peptide Institute, #4136-s) at 37° C. for 30 minutes, and then the medium was collected. The ACTH concentration in the collected medium was measured by the ECLIA method used in clinical testing.
(§2) Cell aggregates that were reaggregated after MACS or FACS purification and cultured for 8 days or more were used. One or five cell aggregates were incubated at a predetermined temperature and for a predetermined time using a predetermined medium, etc., and then the medium and the like were collected. ACTH concentration in the collected medium etc., was measured by the ECLIA method used in clinical testing. In addition, when confirming the influence of secretion suppressing factors and CRH receptor inhibitors, pretreatment was performed for a predetermined period of time with a maintenance medium containing secretion suppressing factors and CRH receptor inhibitors before secretion measurement.

[4] = tested on: cell aggregates reaggregated after MACS purification from hESC sample (CD49c-positive / CD49c-negative cells); assay: ACTH secretion test (CRH stimulation) on reaggregates after MACS purification; conditions: 8 days after reaggregation, 5 aggregates, 1 μg/ml CRH in HBSS, 37° C., 10 minutes, ECLIA
Procedure: The test method used cell aggregates that were cultured for 8 days after MACS purification from a sample differentiated from hESC (also referred to as “hESC sample”) and reaggregation. 5 cell aggregates were transferred to a 1.5 ml microtube and incubated in 250 μl of HBSS(+) (Wako, #084-08965) at 37° C. for 10 minutes, and then HBSS was collected. Subsequently, HBSS was collected after incubation at 37° C. for 10 minutes in 250 μl of HBSS containing 1 μg/ml CRH (Peptide Institute, #4136-s). The ACTH concentration in the collected HBSS was measured by the ECLIA method used in clinical testing.
as §2

[5] = tested on: CD49c-positive cell aggregates reaggregated after FACS purification from hESC sample; assay: ACTH secretion test (CRH stimulation) on reaggregates after FACS purification; conditions: CD49c-positive cells (FACS, hESC sample), cultured 12 days, 1 μg/ml CRH in standard glucose medium, 37° C., 30 minutes, ECLIA
Procedure: As a test method, a cell aggregate that was reaggregated after FACS purification from a hESC sample and cultured for 12 days was used. Each cell aggregate was transferred to a 1.5 ml microtube, incubated in 250 μl of standard glucose medium (glucose-free DMEM+5.56 mM D-glucose+4.44 mM D-mannitol) at 37° C. for 30 minutes, and then the medium was collected. Subsequently, the aggregate was incubated in 250 μl of standard glucose medium containing 1 μg/ml CRH (Peptide Institute, #4136-s) at 37° C. for 30 minutes, and then the medium was collected. The ACTH concentration in the collected medium was measured by the ECLIA method used in clinical testing. […] As a test method, a cell aggregate that was reaggregated after FACS purification from a hESC sample and cultured for 13 days was used. Before secretion measurement, cells were pretreated for 3 hours with maintenance medium (gfCDM+20% KSR+2 μM SAG) containing cortisol (Hydrocortisone, […]) or the same amount of solvent (0.1% DMSO) as a control. […] The ACTH concentration in the collected medium was measured by the ECLIA method used in clinical testing.
as §1

CCCCN(CC)c1nc(C)nc2c1c(C)c(C)n2-c1c(C)cc(C)cc1C [Antalarmin]
ACTH secretion with Antalarmin treatment ([1]; low glucose conditions (10 mg/dL)): reduced ACTH secretion | ACTH secretion with Antalarmin treatment ([1]; standard glucose conditions (100 mg/dL)): reduced ACTH secretion

C[C@]12CCC(=O)C=C1CC[C@@H]1[C@@H]2[C@@H](O)C[C@@]2(C)[C@H]1CC[C@]2(O)C(=O)CO [cortisol, Hydrocortisone]
ACTH secreted per cell aggregate before and after cortisol treatment [2]: ACTH secretion was reduced

CRH: CRH (Peptide Institute, #4136-s), a physiological secretion stimulating factor (SEEPPISLDLTFHLLREVLEMARAEQLAQQAHSNRKLMEII; ends and bridges not checked; UniProt P06850 154-194, looked up)
ACTH secretion per cell aggregate before and after CRH stimulation ([3]; CD49c-negative cells (FACS, hiPSC sample)): did not respond to CRH | ACTH secretion per cell aggregate before and after CRH stimulation ([3]; CD49c-positive cells (FACS, hiPSC sample)): increased ACTH secretion | ACTH secretion before and after CRH stimulation ([4]; CD49c-negative cells (MACS, hESC sample)): did not respond to CRH | ACTH secretion before and after CRH stimulation ([4]; CD49c-positive cells (MACS, hESC sample)): increased ACTH secretion | ACTH secretion per cell aggregate before and after CRH stimulation [5]: ACTH secretion increases
